Assay results published in ChEMBL document CHEMBL1201862, “PubChem BioAssay data set” (2004).
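In this assay, cells in 96-well plates receive the compound at five concentrations for 48 hours. Endpoints are linearly interpolated between the surrounding concentrations. Abbreviation: GI50, concentration required for 50% inhibition of growth.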 The source made the active and inactive calls. Cut-off read from the data, not from the text of the source: active = GI50 up to about 1.1 µM and inactive = higher.

Key:
Experiment in all cases: NCI-60 cell line screen, 48 h
LOX IMVI = test system: LOX IMVI
HL-60 = test system: HL-60
NCI-H460 = test system: NCI-H460
MDA-MB-231 = test system: MDA-MB-231
CAKI-1 = test system: CAKI-1
SF-295 = test system: SF-295
MCF7 = test system: MCF7
EKVX = test system: EKVX
BT-549 = test system: BT-549
Malme-3M = test system: Malme-3M
MDA-MB-435 = test system: MDA-MB-435
MDA-N = test system: MDA-N
ACHN = test system: ACHN
NCI/ADR-RES = test system: NCI/ADR-RES
OVCAR-8 = test system: OVCAR-8
UO-31 = test system: UO-31
786-0 = test system: 786-0
TK-10 = test system: TK-10
K562 = test system: K562
KM12 = test system: KM12
UACC-62 = test system: UACC-62
SW-620 = test system: SW-620
SN12C = test system: SN12C
HT-29 = test system: HT-29
NCI-H226 = test system: NCI-H226
Hs-578T = test system: Hs-578T
OVCAR-3 = test system: OVCAR-3
SK-MEL-5 = test system: SK-MEL-5
NCI-H522 = test system: NCI-H522
MOLT-4 = test system: MOLT-4
PC-3 = test system: PC-3
SK-MEL-28 = test system: SK-MEL-28
HCT-116 = test system: HCT-116
CCRF-CEM = test system: CCRF-CEM
HCT-15 = test system: HCT-15
HOP-62 = test system: HOP-62
SK-MEL-2 = test system: SK-MEL-2
UACC-257 = test system: UACC-257
SNB-19 = test system: SNB-19
COLO 205 = test system: COLO 205
T47D = test system: T47D
IGROV-1 = test system: IGROV-1
M14 = test system: M14
A498 = test system: A498
RXF 393 = test system: RXF 393
A549 = test system: A549
U-251 = test system: U-251
DU-145 = test system: DU-145
NCI-H23 = test system: NCI-H23
OVCAR-5 = test system: OVCAR-5
RPMI-8226 = test system: RPMI-8226
SF-268 = test system: SF-268
OVCAR-4 = test system: OVCAR-4
HCC 2998 = test system: HCC 2998
SNB-75 = test system: SNB-75
SK-OV-3 = test system: SK-OV-3
SF-539 = test system: SF-539
HOP-92 = test system: HOP-92

CCCNC(=O)NNC(=O)c1c[nH]c2nc(C)ccc2c1=O
GI50 (LOX IMVI): > 100 µM (inactive)
GI50 (HL-60): > 100 µM (inactive)
GI50 (NCI-H460): > 100 µM (inactive)
GI50 (MDA-MB-231): > 100 µM (inactive)
GI50 (CAKI-1): > 100 µM (inactive)
GI50 (SF-295): > 100 µM (inactive)
GI50 (MCF7): > 100 µM (inactive)
GI50 (EKVX): > 100 µM (inactive)
GI50 (BT-549): > 100 µM (inactive)
GI50 (Malme-3M): > 100 µM (inactive)
GI50 (MDA-MB-435): > 100 µM (inactive)
GI50 (MDA-N): > 100 µM (inactive)
GI50 (ACHN): > 100 µM (inactive)
GI50 (NCI/ADR-RES): > 100 µM (inactive)
GI50 (OVCAR-8): > 100 µM (inactive)
GI50 (UO-31): > 100 µM (inactive)
GI50 (786-0): > 100 µM (inactive)
GI50 (TK-10): > 100 µM (inactive)
GI50 (K562): > 100 µM (inactive)
GI50 (KM12): > 100 µM (inactive)
GI50 (UACC-62): > 100 µM (inactive)
GI50 (SW-620): > 100 µM (inactive)
GI50 (SN12C): > 100 µM (inactive)
GI50 (HT-29): > 100 µM (inactive)
GI50 (NCI-H226): > 100 µM (inactive)
GI50 (Hs-578T): > 100 µM (inactive)
GI50 (OVCAR-3): > 100 µM (inactive)
GI50 (SK-MEL-5): > 100 µM (inactive)
GI50 (NCI-H522): > 100 µM (inactive)
GI50 (MOLT-4): > 100 µM (inactive)
GI50 (PC-3): > 100 µM (inactive)
GI50 (SK-MEL-28): > 100 µM (inactive)
GI50 (HCT-116): > 100 µM (inactive)
GI50 (CCRF-CEM): > 100 µM (inactive)
GI50 (HCT-15): > 100 µM
GI50 (HOP-62): > 100 µM (inactive)
GI50 (SK-MEL-2): > 100 µM (inactive)
GI50 (UACC-257): > 100 µM (inactive)
GI50 (SNB-19): > 100 µM (inactive)
GI50 (COLO 205): > 100 µM (inactive)
GI50 (T47D): > 100 µM (inactive)
GI50 (IGROV-1): > 100 µM (inactive)
GI50 (M14): > 100 µM (inactive)
GI50 (A498): > 100 µM (inactive)
GI50 (RXF 393): > 100 µM (inactive)
GI50 (A549): > 100 µM (inactive)
GI50 (U-251): > 100 µM (inactive)
GI50 (DU-145): > 100 µM (inactive)
GI50 (NCI-H23): > 100 µM (inactive)
GI50 (OVCAR-5): > 100 µM (inactive)
GI50 (RPMI-8226): > 100 µM (inactive)
GI50 (SF-268): > 100 µM (inactive)
GI50 (OVCAR-4): > 100 µM (inactive)

Cc1ccc(-c2cc(-c3ccc(Cl)cc3)nc(/N=C3\C(=O)N(CN4CCOCC4)c4ccccc43)n2)cc1
GI50 (LOX IMVI): 24.2 µM (inactive)
GI50 (HL-60): 9.02 µM (inactive)
GI50 (NCI-H460): 14 µM (inactive)
GI50 (MDA-MB-231): 33.3 µM (inactive)
GI50 (CAKI-1): 32 µM (inactive)
GI50 (SF-295): 40.9 µM (inactive)
GI50 (MCF7): 19 µM (inactive)
GI50 (EKVX): 30.8 µM (inactive)
GI50 (BT-549): 27.5 µM (inactive)
GI50 (Malme-3M): 22.9 µM (inactive)
GI50 (MDA-MB-435): 19 µM (inactive)
GI50 (MDA-N): 18.5 µM (inactive)
GI50 (ACHN): 23.3 µM (inactive)
GI50 (NCI/ADR-RES): 27.2 µM (inactive)
GI50 (OVCAR-8): 19.5 µM (inactive)
GI50 (786-0): 21.4 µM (inactive)
GI50 (TK-10): 31 µM (inactive)
GI50 (K562): 23.1 µM (inactive)
GI50 (KM12): 22.4 µM (inactive)
GI50 (UACC-62): 20 µM (inactive)
GI50 (SW-620): 17 µM (inactive)
GI50 (HCC 2998): 18.6 µM (inactive)
GI50 (SN12C): 30.8 µM (inactive)
GI50 (HT-29): 20.1 µM (inactive)
GI50 (SNB-75): 25.4 µM (inactive)
GI50 (NCI-H226): 35.6 µM (inactive)
GI50 (Hs-578T): 22.9 µM (inactive)
GI50 (OVCAR-3): 33.9 µM (inactive)
GI50 (SK-MEL-5): 17.6 µM (inactive)
GI50 (NCI-H522): 14.3 µM (inactive)
GI50 (MOLT-4): 8.69 µM (inactive)
GI50 (PC-3): 26.5 µM (inactive)
GI50 (SK-MEL-28): 49.1 µM (inactive)
GI50 (HCT-116): 24.9 µM (inactive)
GI50 (CCRF-CEM): 14.3 µM (inactive)
GI50 (HCT-15): 26.6 µM
GI50 (HOP-62): 28 µM (inactive)
GI50 (SK-MEL-2): 18.3 µM (inactive)
GI50 (UACC-257): 19.5 µM (inactive)
GI50 (SNB-19): 15.1 µM (inactive)
GI50 (COLO 205): 26 µM (inactive)
GI50 (T47D): 32.9 µM (inactive)
GI50 (SK-OV-3): 31.1 µM (inactive)
GI50 (IGROV-1): 15.2 µM (inactive)
GI50 (M14): 26.2 µM (inactive)
GI50 (A498): 18.8 µM (inactive)
GI50 (RXF 393): 16.4 µM (inactive)
GI50 (A549): 17.5 µM (inactive)
GI50 (U-251): 23.7 µM (inactive)
GI50 (DU-145): 33.2 µM (inactive)
GI50 (NCI-H23): 18.8 µM (inactive)
GI50 (OVCAR-5): 21.6 µM (inactive)
GI50 (SF-539): 19.5 µM (inactive)
GI50 (SF-268): 30.4 µM (inactive)
GI50 (OVCAR-4): 28.7 µM (inactive)
GI50 (HOP-92): 22.5 µM (inactive)
